The source of these data is article PMC6458995, “MAP4K4 Inhibition Promotes Survival of Human Stem Cell-Derived Cardiomyocytes and Reduces Infarct Size In Vivo” (Cell Stem Cell, 2019).

In one series the test system is 141 human kinases. In words: Kinase selectivity profiling, Dundee Premier Screen, whole panel. To be noted: number of kinases; compounds at 1 μM. Type of series: biochemical. On the procedure:
Kinase selectivity profiling was performed by the International Centre for Kinase Profiling, MRC Protein Phosphorylation and Ubiquitylation Unit (141 kinases; Premier Screen, http://www.kinase-screen.mrc.ac.uk), using a [γ-^33P]ATP filter binding assay ([Bain et al., 2007]). Compounds were screened at 1 μM. For key hits, pIC50 values were then determined by HTRF as above. More complete kinome profiling was performed by Reaction Biology (376 kinases). Stability in mouse and human liver microsomes was determined by Cyprotex.

The test system of another series is iCell cardiomyocytes. In words: Human cardiac muscle cell death, DRAQ7 uptake (high-content). Type of series: cell-based. To be noted: H2O2, micromolar concentrations. How it is done:
iCell cardiomyocytes were thawed, transferred to Plating Medium, counted using a Vi-CELL XR cell viability analyzer (Beckman Coulter), and seeded into 24-well plates for RNA collection (60,000 cells well^-1; Greiner) or μClear half-area 96-well plates for gene silencing (10,000 cells well^-1; Greiner). Plates were coated with 10 μg ml^-1 collagen type I (BD Biosciences). Cells were cultured in iCell Cardiomyocytes Plating Medium for 2 d and in Maintenance Medium thereafter. For compound dose-response comparisons, the cells were deposited in Plating Medium at 10,000 cells well^-1 in 0.1% (w/v) gelatin-coated 384-well white Greiner plates and were cultured as above for 8 d before treatment. […]
To measure loss of membrane integrity, iCell hiPSC-CMs were co-stained for 15 min at 37°C with 0.3 μM DRAQ7 (Biostatus), a cell-impermeable dye, and with 0.8 μM Hoescht 33342 (Molecular Probes), as the membrane-permeable dye. Dyes were removed and the nuclear fluorescence scored (typically, 15,000-20,000 cells well^-1) using a Cellomics ArrayScan VTI High Content Screening platform. The line harbors a cardiomyocyte-specific Myh6-driven reporter gene for monomeric red fluorescent protein (RFP), enabling cell death to be scored exclusively in the myocyte population. Successfully transduced cells were identified on the basis of TurboGFP fluorescence. […]

The test system of the next series is rat ventricular myocytes. Put plainly: Rat cardiac muscle cell death induced by H2O2 (sub-G1 DNA, flow cytometry). The series is classed as cell-based. On the procedure:
Ventricular myocytes from 1 to 3 day-old Sprague-Dawley rats were enzymatically dissociated, purified by Percoll gradient centrifugation and pre-plating, and cultured as described ([Oh et al., 2003]). To detect hypodiploid DNA, flow cytometry was performed (XL or LSRII, BD Biosciences), using propidium iodide to measure DNA content and sampling > 5000 cells for each histogram. Myocyte identity was confirmed using FITC-conjugated MF-20 antibody to sarcomeric MyHC (R&D Systems). To detect dissipation of mitochondrial membrane potential (ΔΨm), cells were incubated for 60 min in 5 μg ml^-1 5, 5′, 6, 6’-tetrachloro-1, 1’, 3, 3′-tetraethylbenzimidazolyl carbocyanine iodide (DePsipher; R&D Systems). When ΔΨm is intact, mitochondrial uptake and aggregation of the dye result in red fluorescence; when ΔΨm is disturbed, the dye diffuses to the cytoplasm and reverts to its monomeric green form. Myocyte identity was confirmed using mouse antibody to sarcomeric tropomyosin (Sigma-Aldrich) conjugated with Texas Red-X (Molecular Probes).

A further series deals with cardiac MAP4K4 (Mus musculus, UniProt P97820). Put plainly: Target engagement ex vivo (block to desthiobiotin-ATP binding). To be noted: adult mouse cardiac lysates; versus F1386-0303. On the procedure:
Lysates were prepared and assayed using a desthiobiotin-ATP probe Kinase Enrichment Kit (Thermo Fisher Scientific) ([Patricelli et al., 2011]). In brief, tissue samples (100-120 mg) were cut into small pieces and resuspended in 1 mL of Lysis Buffer containing protease and phosphatase inhibitors. After homogenization (30 s on ice), the lysates were centrifuged (16,000 x g at 4°C for 10 min) and a buffer-exchange to Reaction Buffer was performed, to remove endogenous ATPs. Protein concentrations were measured by the BCA assay (Thermo Fisher Scientific). Compounds were added to 500 μL of lysate at 2 mg/ml in presence of 20 mM MgCl2 and incubated for 10 min at room temperature. The ActivX desthiobiotin-ATP probe (5 μM) was added, and samples were incubated for 10 min. Reactions were stopped by adding 500 μL of 8 M Urea/Lysis Buffer, and labeled kinases were captured by incubating samples with 60 μL of 50% Streptavidin-Agarose beads. Samples were incubated with constant inversion for 2 hr at room temperature. Samples were centrifuged (1000 x g for 1 min) and washed three times with 500 μL of 4 M Urea/Lysis Buffer. Captured kinases were eluted by boiling in 30 μL of Laemmli sample buffer for 15 min. Samples were analyzed by western blotting for MAP4K4 and for Src or p38 and were normalized to the capture of the untargeted control kinase.

The subject of another series is vCor.4U cells. Put plainly: Hypoxia-reoxygenation assay (CellTox Green). The note with it: 3 cycles of 0.1% O2 over 8 h. Type of series: cell-based, human. On the procedure: vCor.4U cells were plated at 10,000 well^-1 in Cor.4U medium using black, clear-bottom 96-well plates pre-treated with Geltrex (GIBCO). After incubation overnight at 37°C, the media was replaced with phenol red-free DMEM (GIBCO) supplemented with 2% FCS, 2 mM […], 1 mM pyruvate and 10 mM D-galactose. DMX-5804 prepared in DMSO and CellTox Green (Promega) were added and incubated for 1 hr at 37°C. A breathable seal (AeraSeal) was added to the plate before transferring to a CLARIOstar plate reader (BMG Labtech) equipped with an atmospheric control unit. Oxygen concentration ramping was executed as follows (% O2, hr), at 37°C and 5% CO2. Fluorescence measurements (λex/em 483-14/530-30) were taken using the multiple scan and direct bottom features (5 positions read), and matrix averaging of each position every 20 min. Data were blank corrected, averaged (n = 2) and subjected to exponential smoothing with a damping factor of 0.3.

The next series relates to Cerep Safety 44 panel. Put plainly: Cerep Safety 44 panel (SafetyScreen44). The series is classed as binding. The note with it: except metallothionein 3.

cardiac MAP4K4, sequence (P97820 2-310 limits assumed): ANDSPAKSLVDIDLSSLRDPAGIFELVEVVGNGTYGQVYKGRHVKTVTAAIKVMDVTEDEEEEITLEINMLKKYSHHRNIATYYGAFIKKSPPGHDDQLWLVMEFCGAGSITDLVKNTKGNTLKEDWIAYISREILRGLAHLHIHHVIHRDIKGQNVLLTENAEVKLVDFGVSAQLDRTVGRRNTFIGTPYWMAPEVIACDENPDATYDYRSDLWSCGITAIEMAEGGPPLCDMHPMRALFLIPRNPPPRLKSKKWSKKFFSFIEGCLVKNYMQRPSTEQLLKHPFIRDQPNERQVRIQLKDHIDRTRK

For `Oc1ncnc2c1c(-c1ccccc1)cn2-c1ccccc1` [F1386-0303, 5,7-diphenyl-7H-pyrrolo[2,3-d]pyrimidin-4-ol], the “off-target effects among 141 human kinases” value with 141 human kinases came out at 5. Also, the “suppression of human cardiac muscle cell death (DRAQ7 uptake)” value with iCell cardiomyocytes is “highly protective”. The rat cardiomyocyte death entry in the series with rat ventricular myocytes (H2O2, even at 1 μM) is “inhibited”. Also, in the series with rat ventricular myocytes (Ventricular myocyte, rat ventricular myocytes, 10 μM), the inhibition at 10 µM was approximately 50%. Besides, the “adverse effect of compound” value in the series with rat ventricular myocytes (rat ventricular myocytes, any of the concentrations (1-10 μM)) is listed as “No adverse effect”.
As to `COCCOc1ccc(-c2cn(-c3ccccc3)c3nc[nH]c(=O)c23)cc1` [DMX-5804, 5-[4-(2-methoxy-ethoxy)-phenyl]-7-phenyl-3,7-dihydro-pyrrolo[2,3-d]pyrimidin-4-one], the “greater affinity over the earlier compound (target engagement ex vivo)” value at cardiac MAP4K4 is listed as 10 ×. In the series with vCor.4U cells, the “protection of human cardiomyocyte survival, hypoxia-reoxygenation” value is given as “confirmed”. For the same compound, the “Cerep Safety 44 panel” value in the series with Cerep Safety 44 panel is “no off-target effect”.
